In patent publication US20110104055A1, “SUBSTITUTED N-ARYL BENZAMIDES AND RELATED COMPOUNDS FOR TREATMENT OF AMYLOID DISEASES AND SYNUCLEINOPATHIES” (priority 2002, published 2011):

Experiments:
Type in all cases: biochemical
Aβ 1-42 = biological target: T1, Aβ 1-42 (Homo sapiens, UniProt P05067); test: SDS-PAGE/Western blot of Aβ 1-42 after incubation with compounds; conditions: 25 μM pre-fibrillized Aβ 1-42, 37° C., 3 days, filtrate of 0.2 μm filter, 6E10 antibody
T1 construct: 25 μM of pre-fibrillized Aβ 1-42 (Bachem Inc) was incubated at 37° C; purchased Bachem Inc
T1 sequence (P05067 672-713): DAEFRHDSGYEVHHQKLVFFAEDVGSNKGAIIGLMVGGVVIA
Experimental: In this latter study, triplicate samples of pre-fibiillized Aβ 1-42 (25 μM) was incubated at 37° C. for 3 days, alone or in the presence of the compounds or EDTA. Five micrograms of each sample was then filtered through a 0.2 μm filter. Protein recovered from the filtrate was then loaded, and ran on a 10-20% Tris-Tricine SDS-PAGE, blotted to nitrocellulose and detected using an Aβ-antibody (clone 6E10; Senetek).

IAPP fibrils [1] = biological target: T2, IAPP fibrils (Homo sapiens, UniProt P10997); test: Thioflavin T fluorometry, disruption of IAPP fibrils; conditions: 3 days; for % inhibition of IAPP (Thioflavin T fluorometry): 25 μM IAPP, 37° C.
T2 construct: purchased Bachem Inc
T2 sequence (P10997 34-70 limits assumed): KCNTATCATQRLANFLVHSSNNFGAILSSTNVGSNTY
Experimental: The biological activity of the compounds provided herein as disruptors/inhibitors of Alzheimer's disease β-amyloid protein (Aβ) fibrils, type 2 diabetes IAPP fibrils and Parkinson's disease NAC fibrils was assessed by determining the efficacy of the compounds to cause a disassembly/disruption of pre-formed amyloid fibrils of Alzheimer's disease (i.e. consisting of Aβ 1-42 fibrils), IAPP fibrils and Parkinson's disease NAC fibrils. […] In this assay Thioflavin T binds specifically to fibrillar amyloid, and this binding produces a fluorescence enhancement at 485 nm that is directly proportional to the amount of fibrils present. The higher the fluorescence, the greater the amount of fibrils present (Naki et al, Lab. Invest. 65:104-110, 1991; Levine III, Protein Sci. 2:404-410, 1993; Amyloid: Int. J. Exp. Clin. Invest. 2:1-6, 1995). The disruption of Aβ 1-42, even in its monomeric form, was confirmed by a study involving the use of SDS-PAGE and Western blotting methods.
(§1) In this assay Thioflavin T binds specifically to fibrillar amyloid, and this binding produces a fluorescence enhancement at 485 nm that is directly proportional to the amount of amyloid fibrils formed. The higher the fluorescence, the greater the amount of amyloid fibrils formed (Naki et al., Lab. Invest. 65:104-110, 1991; Levine III, Protein Sci. 2:404-410, 1993; Amyloid: Int. J. Exp. Clin. Invest. 2:1-6, 1995).
In this study, 25 μM of IAPP (Bachem Inc) was incubated at 37° C. for 3 days, either alone, or in the presence of one of the compounds or EDTA (at IAPP:test compound weight ratios of 1:1, 1:0.1, 1:0.01 or 1:0.001). Following 3 days of co-incubation, 50 μl of each incubation mixture was transferred into a 96-well microtiter plate containing 150 μl of distilled water and 50 μl of a Thioflavin T solution (i.e. […] Thioflavin T in 250 mM phosphate buffer, pH 6.8). The fluorescence was read at 485 nm (444 nm excitation wavelength) using an ELISA plate fluorometer after subtraction with buffer alone or compound alone, as blank).

IAPP fibrils [2] = biological target: T2, IAPP fibrils; test: Congo red binding assay, IAPP fibrils; conditions: 3-day incubation
Experimental: In the Congo red binding assay the ability of a given test compound to alter amyloid (Aβ 1-42 fibrils, IAPP fibrils or NAC fibrils) binding to Congo red was quantified. In this assay, Aβ 1-42 fibrils, IAPP fibril or NAC fibrils and test compounds were incubated for 3 days and then vacuum filtered through a 0.2 μm filter. The amount of Aβ 1-42 fibrils, IAPP fibrils or NAC fibrils retained in the filter was then quantitated following staining of the filter with Congo red. After appropriate washing of the filter, any lowering of the Congo red color on the filter in the presence of the test compound (compared to the Congo red staining of the amyloid protein in the absence of the test compound) was indicative of the test compound's ability to diminish/alter the amount of aggregated and congophilic Aβ 1-42 fibrils, IAPP fibrils or NAC fibrils.
In the Congo red binding assay the ability of a test compound to alter amyloid (in this case, IAPP) binding to Congo red is quantified. In this assay, IAPP and test compounds were incubated for 3 days and then vacuum filtered through a 0.2 μm filter. The amount of IAPP retained in the filter was then quantified following staining of the filter with Congo red. After appropriate washing of the filter, any lowering of the Congo red color on the filter in the presence of the test compound (compared to the Congo red staining of the amyloid protein in the absence of the test compound) was indicative of the test compound's ability to diminish/alter the amount of aggregated and congophilic IAPP.
In one study, the ability of IAPP fibrils to bind Congo red in the absence or presence of increasing amounts of the compounds or EDTA (at IAPP:test compound weight ratios of 1:0.001, 1:0.01, 1:0.1 and 1:1) was determined.

α-synuclein fibrils = biological target: T3, α-synuclein fibrils (Homo sapiens, UniProt P37840); test: Thioflavin T fluorometry, disruption of pre-formed α-synuclein fibrils (Example 12); conditions: 3 days; for % Inhibition α-synuclein (result ± S.D.), Thioflavin T fluorometry: 30 μg pre-fibrillized α-synuclein, 37° C.
T3 construct: purchased rPeptide
Experimental: as §1, with “assay,” for “assay”, “α-synuclein fibrils,” for “fibrillar amyloid,”, “α-synuclein” for “amyloid”, “present.” for “formed.”, “present” for “formed”, “al,” for “al.,”
In this study, 30 μg of pre-fibrillized α-synuclein (rPeptide) was incubated at 37° C. for 3 days either alone or in the presence of compounds DC-0051-F1, F2, F3, F4, F5, F6 or EDTA (at α-synuclein:test compound weight ratios of 1:1, 1:0.1, 1:0.01 or 1:0.001). Following 3-days of co-incubation, 50 μl of each incubation mixture was transferred into a 96-well microtiter plate containing 150 μl of distilled water and 50 μl of a Thioflavin T solution (i.e. […] Thioflavin T in 250 mM phosphate buffer, pH 6.8). The fluorescence was read at 485 nm (444 nm excitation wavelength) using an ELISA plate fluorometer after subtraction with buffer alone or compound alone, as blank.

[3] = IAPP:test compound wt/wt ratio 1:0.001
[4] = IAPP:test compound wt/wt ratio 1:0.01
[5] = IAPP:test compound wt/wt ratio 1:0.1
[6] = IAPP:test compound wt/wt ratio 1:1
[7] = Thioflavin T fluorometry, all concentrations tested

`O=C(O)CN(CCN(CC(=O)O)CC(=O)O)CC(=O)O` [EDTA] was tested, and the “detection of Aβ 1-42 monomers (~4 kilodalton band) after incubation” value (Aβ 1-42) was “detected as a ˜4 kilodalton band”, the “% inhibition of IAPP (Thioflavin T fluorometry)” value (IAPP fibrils [1]; [3]) was 0.0 +/− 0.56% and the “% inhibition of IAPP (Thioflavin T fluorometry)” value (IAPP fibrils [1]; [4]) was 4. +/− 3.152%. For the same compound, the “% inhibition of IAPP (Thioflavin T fluorometry)” value (IAPP fibrils [1]; [5]) was 1.6 +/− 5.86%, the “% inhibition of IAPP (Thioflavin T fluorometry)” value (IAPP fibrils [1]; [6]) was 0.0 ± 1.31% and the “disruption/disassembly of preformed IAPP fibrils, in words” value (IAPP fibrils [1]; [7]) was “no significant inhibition/disruption”. The “inhibition of IAPP fibril binding to Congo red, in words” value (IAPP fibrils [2]) was “no significant inhibition”, the “% inhibition of IAPP (Congo red binding)” value (IAPP fibrils [2]; [3]) was 0.0 ± 1.82% and the “% inhibition of IAPP (Congo red binding)” value (IAPP fibrils [2]; [4]) was 0.0 +/− 1.65%. For the same compound, the “% inhibition of IAPP (Congo red binding)” value (IAPP fibrils [2]; [5]) was 0.0 +/− 2.40%, the “% inhibition of IAPP (Congo red binding)” value (IAPP fibrils [2]; [6]) was 13.9 +/− 4.71% and the “disruption/disassembly of pre-formed α-synuclein fibrils, in words” value (α-synuclein fibrils; [7]) was “no significant inhibition”. For the same compound, the “% Inhibition α-synuclein (result ± S.D.), Thioflavin T fluorometry” value (from here on “% Inhibition α-synuclein”) (α-synuclein fibrils; α-synuclein:test compound wt/wt ratio 1:0.001) was 0.0 ± 4.11%, the “% Inhibition α-synuclein” value (α-synuclein fibrils; α-synuclein:test compound wt/wt ratio 1:0.01) was 0.0 ± 17.06% and the “% Inhibition α-synuclein” value (α-synuclein fibrils; α-synuclein:test compound wt/wt ratio 1:0.1) was 0.0 ± 6.97%. The “% Inhibition α-synuclein” value (α-synuclein fibrils; α-synuclein:test compound wt/wt ratio 1:1) was 0.0 ± 2.03%.
